# Calls of active or inactive are those of the source.
# What was measured:
# Albumin = Albumin (Bos taurus, UniProt P02769); assay: Counterscreen for inhibitors of T-cell receptor (TCR)-CD3 interaction: Fluorescence-based biochemical high throughput dose response assay to identify inhibitors of T-cell receptor (TCR)-CD3 interaction using a TAMRA-labeled BSA probe.; type: functional
# [1] = HepG2 cell cytotoxicity, dose response, cytotoxicity control, plate reader, cherry-pick, antagonist series (AID 743416); type: functional, cell-based
# [2] = LGR2 antagonists, dose response, cell-based, HEK293, CRE-luciferase reporter, cherry pick, set 2 (AID 743343); type: functional;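 also: transfected cells were stimulated with diluted bursicon conditioned medium after compound addition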
# [3] = MC4R antagonists, dose response, counter-screen for LGR2 antagonist project, cell-based, plate reader, cherry pick (AID 743444); type: functional;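 also: transfected HEK 293 cells stimulated with alpha-MSH peptide; potency of inhibitors of the alpha-MSH evoked signal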
# [4] = HEK293 cell cytotoxicity, dose response, cytotoxicity control, plate reader, cherry-picked samples (AID 743446); type: functional, cell-based
# [5] = molecular target: DNA repair and recombination protein RAD54-like (Homo sapiens, UniProt Q92698); assay: inhibitors of human RAD54 branch migration, confirmation, biochemical, fluorescence, cherry-picked samples, dose series (AID 651657); type: functional
# Chain of DNA repair and recombination protein RAD54-like (Q92698 whole entry): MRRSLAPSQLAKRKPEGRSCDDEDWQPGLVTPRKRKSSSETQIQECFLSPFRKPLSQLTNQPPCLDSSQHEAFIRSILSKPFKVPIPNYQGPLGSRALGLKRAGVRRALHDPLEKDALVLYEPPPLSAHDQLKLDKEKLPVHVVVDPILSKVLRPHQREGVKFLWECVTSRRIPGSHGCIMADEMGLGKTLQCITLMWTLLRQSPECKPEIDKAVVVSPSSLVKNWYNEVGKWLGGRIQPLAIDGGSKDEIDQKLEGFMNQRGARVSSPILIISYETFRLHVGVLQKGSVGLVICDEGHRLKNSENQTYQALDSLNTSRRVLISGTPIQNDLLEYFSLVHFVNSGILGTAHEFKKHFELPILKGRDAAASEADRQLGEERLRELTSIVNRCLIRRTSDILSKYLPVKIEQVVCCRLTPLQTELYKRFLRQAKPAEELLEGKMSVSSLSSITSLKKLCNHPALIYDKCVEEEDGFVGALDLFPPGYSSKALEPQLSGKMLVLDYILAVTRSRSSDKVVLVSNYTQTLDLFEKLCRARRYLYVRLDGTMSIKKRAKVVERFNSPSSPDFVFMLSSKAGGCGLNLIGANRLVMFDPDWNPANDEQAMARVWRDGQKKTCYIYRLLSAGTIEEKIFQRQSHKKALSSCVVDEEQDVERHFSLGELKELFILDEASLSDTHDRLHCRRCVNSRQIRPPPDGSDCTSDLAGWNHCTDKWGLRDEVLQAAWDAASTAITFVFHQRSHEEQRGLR
# [6] = molecular target: SWI/SNF-related matrix-associated actin-dependent regulator of chromatin subfamily A member 2 (Homo sapiens, UniProt P51531); assay: Luminescence-based cell-based high throughput dose response assay to identify activators of the function of SWI/SNF related, matrix associated, actin dependent regulator of chromatin, subfamily a, member 2 (SMARCA2, BRM).; type: functional
# Chain of SWI/SNF-related matrix-associated actin-dependent regulator of chromatin subfamily A member 2 (P51531 whole entry): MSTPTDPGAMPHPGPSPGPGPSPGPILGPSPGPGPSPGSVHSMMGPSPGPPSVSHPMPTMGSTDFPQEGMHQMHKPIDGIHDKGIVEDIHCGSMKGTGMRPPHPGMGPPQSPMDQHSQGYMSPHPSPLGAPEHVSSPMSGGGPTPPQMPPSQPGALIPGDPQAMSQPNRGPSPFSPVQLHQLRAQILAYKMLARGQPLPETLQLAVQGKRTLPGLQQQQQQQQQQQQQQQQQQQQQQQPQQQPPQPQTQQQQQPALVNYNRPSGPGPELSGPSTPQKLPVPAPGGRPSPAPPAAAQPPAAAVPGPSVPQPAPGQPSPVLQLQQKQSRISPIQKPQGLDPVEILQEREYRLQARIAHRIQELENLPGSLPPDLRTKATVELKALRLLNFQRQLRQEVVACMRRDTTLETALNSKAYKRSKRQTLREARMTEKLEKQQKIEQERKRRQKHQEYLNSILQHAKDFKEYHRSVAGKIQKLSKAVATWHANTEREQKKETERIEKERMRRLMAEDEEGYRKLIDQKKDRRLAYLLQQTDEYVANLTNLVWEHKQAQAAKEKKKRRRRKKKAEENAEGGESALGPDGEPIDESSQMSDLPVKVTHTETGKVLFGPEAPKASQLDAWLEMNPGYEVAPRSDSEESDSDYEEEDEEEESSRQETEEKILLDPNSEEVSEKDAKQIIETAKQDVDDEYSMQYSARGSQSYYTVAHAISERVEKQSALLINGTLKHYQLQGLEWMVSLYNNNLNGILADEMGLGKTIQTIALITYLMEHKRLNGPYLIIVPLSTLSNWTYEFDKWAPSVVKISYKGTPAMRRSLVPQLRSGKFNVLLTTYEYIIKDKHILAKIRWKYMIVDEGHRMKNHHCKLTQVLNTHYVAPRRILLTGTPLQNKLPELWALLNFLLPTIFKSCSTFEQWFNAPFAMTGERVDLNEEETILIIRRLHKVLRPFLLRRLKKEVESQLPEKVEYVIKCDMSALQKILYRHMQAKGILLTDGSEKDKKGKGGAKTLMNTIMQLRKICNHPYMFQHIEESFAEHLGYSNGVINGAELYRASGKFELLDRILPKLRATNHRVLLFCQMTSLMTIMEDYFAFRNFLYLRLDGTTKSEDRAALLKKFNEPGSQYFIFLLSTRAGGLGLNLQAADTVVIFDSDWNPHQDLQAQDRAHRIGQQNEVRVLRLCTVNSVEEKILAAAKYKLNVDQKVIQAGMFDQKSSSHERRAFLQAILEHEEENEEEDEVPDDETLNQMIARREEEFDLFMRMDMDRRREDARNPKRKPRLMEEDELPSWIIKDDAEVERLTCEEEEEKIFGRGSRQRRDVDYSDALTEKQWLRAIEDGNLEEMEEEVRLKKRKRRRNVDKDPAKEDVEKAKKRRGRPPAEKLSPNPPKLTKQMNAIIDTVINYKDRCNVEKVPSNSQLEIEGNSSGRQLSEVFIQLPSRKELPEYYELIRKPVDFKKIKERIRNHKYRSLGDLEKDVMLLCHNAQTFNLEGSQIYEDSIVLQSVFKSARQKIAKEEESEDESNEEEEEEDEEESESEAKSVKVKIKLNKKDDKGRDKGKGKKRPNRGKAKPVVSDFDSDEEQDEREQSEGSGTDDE
# [7] = Counterscreen for activators of the function of SWI/SNF related, matrix associated, actin dependent regulator of chromatin, subfamily a, member 2 (SMARCA2, BRM): Luminescence-based cell-based high throughput dose response assay to identify non-selective compounds using the VP16 reporter assay.; type: functional
# [8] = molecular target: T1, DNA repair protein RAD52 homolog (Homo sapiens, UniProt P43351); type: functional, biochemical
# T1 sequence (P43351 whole entry): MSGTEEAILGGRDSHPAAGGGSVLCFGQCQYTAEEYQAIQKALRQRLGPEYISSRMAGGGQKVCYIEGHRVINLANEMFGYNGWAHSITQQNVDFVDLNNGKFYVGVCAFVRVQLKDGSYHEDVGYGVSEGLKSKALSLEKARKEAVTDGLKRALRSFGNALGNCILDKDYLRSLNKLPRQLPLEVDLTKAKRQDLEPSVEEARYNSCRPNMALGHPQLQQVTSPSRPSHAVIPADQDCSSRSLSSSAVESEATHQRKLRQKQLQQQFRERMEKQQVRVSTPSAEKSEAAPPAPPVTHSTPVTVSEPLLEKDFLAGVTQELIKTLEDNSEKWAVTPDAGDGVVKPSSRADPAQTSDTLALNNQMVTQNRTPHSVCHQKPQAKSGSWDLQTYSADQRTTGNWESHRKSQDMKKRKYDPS
# Cytochrome P450 2C19 = Cytochrome P450 2C19 (Homo sapiens, UniProt P33261); assay: Cytochrome panel assay with activity outcomes. Panel member name: p450-cyp2c19 Compounds with AC50 equal or less than 10 uM are considered active; type: functional; details: read-out: AC50
# Chain of Cytochrome P450 2C19 (P33261 whole entry): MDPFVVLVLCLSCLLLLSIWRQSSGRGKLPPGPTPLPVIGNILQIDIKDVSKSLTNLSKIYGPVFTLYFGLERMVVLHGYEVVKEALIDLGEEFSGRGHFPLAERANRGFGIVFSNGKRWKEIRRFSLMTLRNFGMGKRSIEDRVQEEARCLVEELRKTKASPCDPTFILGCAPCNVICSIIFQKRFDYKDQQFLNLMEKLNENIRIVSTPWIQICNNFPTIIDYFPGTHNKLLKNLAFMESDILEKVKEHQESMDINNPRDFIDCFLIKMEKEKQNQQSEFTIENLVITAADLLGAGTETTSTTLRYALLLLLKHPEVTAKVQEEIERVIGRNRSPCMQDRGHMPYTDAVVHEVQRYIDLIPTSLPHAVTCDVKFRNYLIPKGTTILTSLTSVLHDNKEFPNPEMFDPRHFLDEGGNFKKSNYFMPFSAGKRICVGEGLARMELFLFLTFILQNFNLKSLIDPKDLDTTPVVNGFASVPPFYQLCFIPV
# [9] = HEK293T cell cytotoxicity, dose response, cytotoxicity control for HIV Vif inhibitor project, cherry-picks (AID 652208); type: functional, cell-based
# Cytochrome P450 3A4 = Cytochrome P450 3A4 (Homo sapiens, UniProt P08684);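 also: CYP3A4 tested as one member of a cytochrome P450 panel screen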
# Chain of Cytochrome P450 3A4 (P08684 whole entry): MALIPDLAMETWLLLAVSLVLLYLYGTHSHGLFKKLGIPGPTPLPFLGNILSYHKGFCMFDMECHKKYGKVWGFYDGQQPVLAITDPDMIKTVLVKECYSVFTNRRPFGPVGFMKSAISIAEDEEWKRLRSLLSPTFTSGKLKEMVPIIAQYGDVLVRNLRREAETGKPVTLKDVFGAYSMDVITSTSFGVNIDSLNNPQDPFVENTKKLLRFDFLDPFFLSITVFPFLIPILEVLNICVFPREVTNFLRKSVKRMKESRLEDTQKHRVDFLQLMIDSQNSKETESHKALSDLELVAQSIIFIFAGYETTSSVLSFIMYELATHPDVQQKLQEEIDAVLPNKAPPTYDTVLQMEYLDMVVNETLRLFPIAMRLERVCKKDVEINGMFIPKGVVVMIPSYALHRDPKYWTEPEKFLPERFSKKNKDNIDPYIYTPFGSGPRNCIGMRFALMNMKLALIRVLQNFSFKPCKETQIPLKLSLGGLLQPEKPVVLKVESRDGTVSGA
# [10] = molecular target: Scavenger receptor class B member 1 (Mus musculus, UniProt Q61009); assay: inhibitors of SR-BI-mediated HDL uptake, dose response, cell-based, ldlA[mSR-BI] CHO, DiI fluorescence, dry powder, set 10 (AID 624029); type: functional
# [11] = T. cruzi growth inhibition in host cells, dose response, cell-based, plate reader, dry powder, set 2 (AID 652275); type: functional
# [12] = T. cruzi intracellular amastigote growth inhibition, dose response, imaging, CA-I/72 strain, bovine embryo skeletal muscle, dry powder (AID 651885); type: functional, cell-based
# Protein Wnt-3a = Protein Wnt-3a (Mus musculus, UniProt P27467); assay: SAR analysis of small molecule antagonists of Gli-SUFU in a Wnt3a luminescent reporter assay.; type: functional
# Chain of Protein Wnt-3a (P27467 whole entry): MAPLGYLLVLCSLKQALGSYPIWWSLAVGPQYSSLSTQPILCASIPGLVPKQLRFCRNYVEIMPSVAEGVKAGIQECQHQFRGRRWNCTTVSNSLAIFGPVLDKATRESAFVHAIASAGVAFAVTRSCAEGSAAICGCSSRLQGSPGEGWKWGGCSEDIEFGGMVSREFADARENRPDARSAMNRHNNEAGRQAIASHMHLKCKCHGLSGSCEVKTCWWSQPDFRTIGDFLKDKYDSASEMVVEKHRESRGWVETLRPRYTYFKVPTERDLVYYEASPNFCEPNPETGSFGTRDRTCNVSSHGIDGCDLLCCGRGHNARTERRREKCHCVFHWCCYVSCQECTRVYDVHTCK
# [13] = molecular target: T2, Heat shock factor protein 1 (Mus musculus, UniProt P38532); assay: HSF1 potentiators in luciferase reporter cells, confirmation, cell-based, NIH3T3, luminescence, dose retest (AID 435004); type: functional;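 also: stress induced by proteasome inhibitor MG132 added 30 min after compound; luciferase reporter driven by HSF1 response element in NIH3T3 cells; actives raise luminescence as potentiators of the MG132 stress response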
# T2 sequence (P38532 whole entry): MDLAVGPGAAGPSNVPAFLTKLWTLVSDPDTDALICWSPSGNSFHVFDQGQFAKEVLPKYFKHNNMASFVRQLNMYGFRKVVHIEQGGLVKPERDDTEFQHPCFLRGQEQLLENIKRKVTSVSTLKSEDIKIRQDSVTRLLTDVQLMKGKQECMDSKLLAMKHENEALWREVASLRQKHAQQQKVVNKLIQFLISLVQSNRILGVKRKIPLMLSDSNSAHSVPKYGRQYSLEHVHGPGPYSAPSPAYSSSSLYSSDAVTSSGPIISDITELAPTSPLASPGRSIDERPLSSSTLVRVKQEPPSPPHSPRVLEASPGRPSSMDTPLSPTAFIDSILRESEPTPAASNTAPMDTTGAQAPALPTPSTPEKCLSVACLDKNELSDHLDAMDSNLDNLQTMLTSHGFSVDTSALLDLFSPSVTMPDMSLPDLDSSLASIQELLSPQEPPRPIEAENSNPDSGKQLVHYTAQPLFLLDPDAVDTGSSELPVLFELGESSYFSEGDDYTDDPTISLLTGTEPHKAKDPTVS
# [14] = molecular target: T3, Replicative DNA helicase DnaB (Mycobacterium tuberculosis, UniProt P9WMR3); assay: DnaB intein splicing inhibitors, dose response, biochemical, cell-free fluorescence (AID 449749); type: functional
# T3 sequence (P9WMR3 whole entry): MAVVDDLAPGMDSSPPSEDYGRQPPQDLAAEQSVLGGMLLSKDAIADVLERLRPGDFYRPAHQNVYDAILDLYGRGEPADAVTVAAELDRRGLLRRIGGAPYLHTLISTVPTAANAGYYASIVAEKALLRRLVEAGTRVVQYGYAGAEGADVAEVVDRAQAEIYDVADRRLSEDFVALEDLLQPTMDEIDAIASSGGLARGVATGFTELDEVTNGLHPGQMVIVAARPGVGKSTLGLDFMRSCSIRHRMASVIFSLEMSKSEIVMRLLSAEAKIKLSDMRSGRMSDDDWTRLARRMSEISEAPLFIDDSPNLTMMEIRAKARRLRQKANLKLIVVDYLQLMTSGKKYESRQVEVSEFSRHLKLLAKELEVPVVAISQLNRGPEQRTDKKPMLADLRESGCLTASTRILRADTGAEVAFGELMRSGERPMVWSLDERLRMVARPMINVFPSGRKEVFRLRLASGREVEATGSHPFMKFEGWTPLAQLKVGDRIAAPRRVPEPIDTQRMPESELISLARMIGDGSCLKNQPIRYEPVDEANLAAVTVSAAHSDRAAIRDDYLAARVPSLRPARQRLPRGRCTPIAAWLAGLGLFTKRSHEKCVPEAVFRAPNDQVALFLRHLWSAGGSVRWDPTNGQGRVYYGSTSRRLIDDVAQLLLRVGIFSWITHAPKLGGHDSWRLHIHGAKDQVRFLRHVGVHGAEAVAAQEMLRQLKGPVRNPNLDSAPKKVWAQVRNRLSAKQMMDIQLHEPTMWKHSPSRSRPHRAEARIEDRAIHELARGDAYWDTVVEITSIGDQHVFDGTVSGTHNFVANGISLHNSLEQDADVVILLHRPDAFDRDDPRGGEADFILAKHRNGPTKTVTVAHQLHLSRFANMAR
# [15] = molecular target: T4, Apoptotic protease-activating factor 1 (Homo sapiens, UniProt O14727); type: functional
# T4 sequence (O14727 whole entry): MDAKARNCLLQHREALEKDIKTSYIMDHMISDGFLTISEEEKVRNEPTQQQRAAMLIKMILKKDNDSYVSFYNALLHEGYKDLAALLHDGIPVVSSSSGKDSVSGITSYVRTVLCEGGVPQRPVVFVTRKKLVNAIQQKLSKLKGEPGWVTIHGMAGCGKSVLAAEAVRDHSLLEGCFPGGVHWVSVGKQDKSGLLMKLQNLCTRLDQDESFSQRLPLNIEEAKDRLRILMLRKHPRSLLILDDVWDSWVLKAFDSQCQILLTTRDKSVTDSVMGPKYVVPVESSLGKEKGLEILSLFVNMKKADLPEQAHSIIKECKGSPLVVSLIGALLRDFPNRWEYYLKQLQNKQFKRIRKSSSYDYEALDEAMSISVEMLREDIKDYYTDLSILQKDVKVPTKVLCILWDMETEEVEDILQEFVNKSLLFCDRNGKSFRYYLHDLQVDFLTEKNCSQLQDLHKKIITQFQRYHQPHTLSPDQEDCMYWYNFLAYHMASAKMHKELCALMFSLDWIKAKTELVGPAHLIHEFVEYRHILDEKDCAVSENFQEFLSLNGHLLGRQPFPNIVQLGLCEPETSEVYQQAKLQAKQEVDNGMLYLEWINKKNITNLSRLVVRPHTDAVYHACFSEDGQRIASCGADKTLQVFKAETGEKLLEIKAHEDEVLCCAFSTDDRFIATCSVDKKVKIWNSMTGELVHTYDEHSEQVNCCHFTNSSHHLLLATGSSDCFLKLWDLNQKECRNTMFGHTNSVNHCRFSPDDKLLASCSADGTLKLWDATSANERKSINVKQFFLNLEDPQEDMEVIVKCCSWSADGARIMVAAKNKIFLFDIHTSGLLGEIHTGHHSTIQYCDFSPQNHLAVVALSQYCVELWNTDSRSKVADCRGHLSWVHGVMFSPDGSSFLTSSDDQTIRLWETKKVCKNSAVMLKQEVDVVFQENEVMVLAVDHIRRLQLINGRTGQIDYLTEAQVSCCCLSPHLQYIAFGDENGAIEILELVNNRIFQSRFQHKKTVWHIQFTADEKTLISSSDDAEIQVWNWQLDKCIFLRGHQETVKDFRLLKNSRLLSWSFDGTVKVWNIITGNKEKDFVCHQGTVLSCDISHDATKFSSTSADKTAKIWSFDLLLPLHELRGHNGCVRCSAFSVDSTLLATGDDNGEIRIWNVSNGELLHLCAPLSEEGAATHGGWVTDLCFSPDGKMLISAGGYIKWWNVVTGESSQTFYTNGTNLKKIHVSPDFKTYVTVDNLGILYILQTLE
# Protein RecA = molecular target: T5, Protein RecA (Mycobacterium tuberculosis, UniProt P9WHJ3); assay: Fluorescence Cell-Free Homogeneous Dose Retest to Identify Inhibitors of RecA-Intein Splicing Activity. [Related pubchem assays (depositor defined):AID2097, AID2223, AID489010, AID492950]; type: functional
# T5 sequence (P9WHJ3 whole entry): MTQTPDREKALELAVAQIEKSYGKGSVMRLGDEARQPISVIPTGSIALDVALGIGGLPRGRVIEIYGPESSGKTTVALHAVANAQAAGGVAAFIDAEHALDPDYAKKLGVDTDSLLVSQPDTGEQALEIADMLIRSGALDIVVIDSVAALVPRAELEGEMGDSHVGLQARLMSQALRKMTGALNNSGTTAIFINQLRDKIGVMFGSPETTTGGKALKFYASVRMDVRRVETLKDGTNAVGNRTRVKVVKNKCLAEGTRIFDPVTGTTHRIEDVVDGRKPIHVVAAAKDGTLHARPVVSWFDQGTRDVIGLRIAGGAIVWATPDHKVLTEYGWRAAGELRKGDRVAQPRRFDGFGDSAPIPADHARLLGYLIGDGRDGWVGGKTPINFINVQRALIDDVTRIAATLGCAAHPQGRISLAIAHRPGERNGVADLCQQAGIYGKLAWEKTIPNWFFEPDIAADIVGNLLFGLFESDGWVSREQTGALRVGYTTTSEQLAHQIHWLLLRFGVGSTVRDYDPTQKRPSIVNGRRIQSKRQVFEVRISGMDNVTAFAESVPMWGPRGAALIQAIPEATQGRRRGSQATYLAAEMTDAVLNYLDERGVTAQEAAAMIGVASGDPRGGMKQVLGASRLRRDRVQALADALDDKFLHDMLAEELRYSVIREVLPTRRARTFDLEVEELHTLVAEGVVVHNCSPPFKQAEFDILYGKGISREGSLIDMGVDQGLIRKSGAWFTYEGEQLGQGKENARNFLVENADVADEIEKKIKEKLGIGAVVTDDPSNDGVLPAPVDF
# INS1 = assay: beta cell apoptosis inhibitors, cytokine rescue, dose response, luminescence, retest (AID 449756); type: functional, cell-based; details: Rattus norvegicus;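 also: cell death triggered by IL-1 beta plus TNF-alpha plus IFN-gamma mixture; protective hits raise ATP signal compared with cytokine alone wells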
# [16] = molecular target: Tyrosyl-DNA phosphodiesterase 2 (Homo sapiens, UniProt O95551); assay: human TDP2 enzyme inhibitors, dose response, biochemical, epi absorbance, IC50 (AID 743297)
# Chain of Tyrosyl-DNA phosphodiesterase 2 (O95551 whole entry): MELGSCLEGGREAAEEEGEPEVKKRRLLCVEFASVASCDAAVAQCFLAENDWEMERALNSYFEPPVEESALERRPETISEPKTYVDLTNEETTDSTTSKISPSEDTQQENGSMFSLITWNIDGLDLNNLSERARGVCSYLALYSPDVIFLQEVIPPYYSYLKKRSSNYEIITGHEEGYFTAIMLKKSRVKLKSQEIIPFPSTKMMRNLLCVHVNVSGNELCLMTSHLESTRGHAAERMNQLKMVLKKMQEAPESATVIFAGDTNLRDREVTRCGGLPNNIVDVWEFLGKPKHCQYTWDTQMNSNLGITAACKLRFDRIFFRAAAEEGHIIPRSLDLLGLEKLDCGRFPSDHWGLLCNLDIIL
# Chain of Albumin (P02769 whole entry): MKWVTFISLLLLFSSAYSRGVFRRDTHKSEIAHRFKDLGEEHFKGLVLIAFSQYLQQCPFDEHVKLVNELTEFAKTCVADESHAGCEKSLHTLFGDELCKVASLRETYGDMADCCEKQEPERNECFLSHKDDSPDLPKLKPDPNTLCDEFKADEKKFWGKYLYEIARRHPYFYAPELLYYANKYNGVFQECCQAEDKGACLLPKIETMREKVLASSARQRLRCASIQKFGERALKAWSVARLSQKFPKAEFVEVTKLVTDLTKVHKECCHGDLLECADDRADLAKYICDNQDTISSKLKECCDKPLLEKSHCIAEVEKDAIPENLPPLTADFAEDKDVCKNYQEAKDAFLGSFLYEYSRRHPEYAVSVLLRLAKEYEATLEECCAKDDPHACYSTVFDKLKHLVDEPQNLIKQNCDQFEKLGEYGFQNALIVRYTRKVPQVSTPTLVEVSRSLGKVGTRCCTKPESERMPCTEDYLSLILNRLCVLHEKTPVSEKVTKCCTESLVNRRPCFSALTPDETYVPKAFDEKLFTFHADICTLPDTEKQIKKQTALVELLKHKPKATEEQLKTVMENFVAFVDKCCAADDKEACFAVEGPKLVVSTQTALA
structure (smiles),measurement,setting,value
NNC(=O)c1[nH]cnc1C(=O)Nc1ccccn1,IC50,Albumin,> 94.2 µM (inactive)
O=C(NC1(Cc2ccccc2)CCN(Cc2ccc(-c3ccccc3)cc2)C1=O)c1ccccc1 (configuration not stated),AC50,[1],> 52 µM (inactive)
same,AC50,[2],5.14 µM (active)
same,AC50,[3],10.1 µM (active)
same,AC50,[4],> 52 µM (inactive)
Cc1ccc(-c2nc(NCCN(C)C)c3ccccc3n2)cc1,AC50,[5],12.6 µM (active)
same,EC50,[6],37.1 µM (inactive)
same,EC50,[7],> 91.2 µM (inactive)
same,AC50,[8],8.93 µM (active)
COC(=O)c1ccc(Oc2coc3cc(OCc4cnn(-c5ccccc5)c4)ccc3c2=O)cc1,AC50,Cytochrome P450 2C19,0.708 µM (inconclusive)
same,AC50,[9],38.3 µM (active)
same,AC50,Cytochrome P450 3A4,inconclusive
Cc1ccc(OCc2cc(C(=O)N3CCCC(O)C3)no2)cn1 (configuration not stated),AC50,[10],61 µM (active)
Cc1cc(C(=O)Nc2cccc3c2O[C@@H](CN(C)Cc2ccc(Oc4ccccc4)cc2)[C@H](C)CN([C@@H](C)CO)C3=O)n(C)n1,AC50,[11],1.28 µM (active)
same,IC50,[12],> 20 µM (inactive)
O=C(Nc1cc(N2CCCCC2)ncn1)c1ccc2ccccc2c1,IC50,Protein Wnt-3a,> 21.8 µM (inactive)
CC(=O)Nc1ccc(S(=O)(=O)NC2=C(N3CCN(c4ccc(F)cc4)CC3)C(=O)c3ccccc3C2=O)cc1,EC50,[13],> 260 µM (inactive)
same,AC50,[14],4.98 µM (active)
same,IC50,[15],17.4 µM (active)
same,EC50,Protein RecA,10.4 µM (active)
same,AC50,INS1,4.96 µM (active)
same,IC50,[16],> 128 µM (inactive)
